Legend:
Alternaria alternata = Alternaria alternata in vitro cell test; type: cell-based; details: 120 h, 20 ppm of active ingredient, 5 days incubation, read-out: efficacy (inhibition of fungal growth)
Protocol: (§1) • Solvent: DMSO • Culture medium: 14.6 g anhydrous D-glucose (VWR), 7.1 g Mycological Peptone (Oxoid), 1.4 g granulated Yeast Extract (Merck), QSP 1 liter • Inoculum: spores suspension
(§2) Fungicides were solubilized in DMSO and the solution used to prepare the required range of concentrations. The final concentration of DMSO used in the assay was ≤[…]1%.
A spore suspension of A. alternata was prepared and diluted to the desired spore density.
(§3) Fungicides were evaluated for their ability to inhibit spore germination and mycelium growth in liquid culture assay. The compounds were added in the desired concentration to the culture medium with spores. After 5 days incubation, fungi-toxicity of compounds was determined by spectrometric measurement of mycelium growth. Inhibition of fungal growth was determined by comparing the absorbance values in wells containing the fungicides with the absorbance in control wells without fungicides.

[1] = system: Colletotrichum lindemuthianum; assay: Colletotrichum lindemuthianum in vitro cell test; type: cell-based; details: 144 h, 20 ppm of active ingredient, 6 days incubation, read-out: efficacy (inhibition of fungal growth)
Protocol: as §1, §2
A spore suspension of C. lindemuthianum was prepared and diluted to the desired spore density.
as §3, with “inhibit spores” for “inhibit spore”, “After 6” for “After 5”

[2] = system: Xanthomonas campestris pv. campestris; assay: Xanthomonas campestris pv. campestris in vitro cell test; type: cell-based; details: 20 ppm of active ingredient, 24 h incubation, read-out: efficacy (inhibition of bacteria growth)
Protocol: • Solvent: DMSO • Culture medium: LB broth medium (Luria Broth Miller) Sigma • Inoculum: bacteria suspension
Compounds were solubilized in DMSO and the solution used to prepare the required range of concentrations. The final concentration of DMSO used in the assay was ≤1%.
(§4) Inoculum was prepared from a pre-culture of bacteria grown in liquid medium and diluted to the desired optical density (OD).
(§5) Compounds were evaluated for their ability to inhibit bacteria growth in liquid culture assay. The compounds were added in the desired concentrations to culture medium containing the bacteria suspension. After 24 h of incubation, the efficacy of compounds was determined by spectrometric measurement of bacteria growth. Inhibition was determined by comparing the absorbance values in wells containing the compounds with the absorbance in control wells without active ingredients.

[3] = system: Pseudomonas syringae pv. tomato; assay: Pseudomonas syringae pv. tomato in vitro cell test; type: cell-based; details: 20 ppm of active ingredient, 24 h incubation, read-out: efficacy (inhibition of bacteria growth)
Protocol: Culture medium: LB broth medium (Luria Broth Miller) Sigma
Inoculum: bacteria suspension
Compounds were solubilized in DMSO and the solution used to prepare the required range of concentrations. The final concentration of DMSO used in the assay was 1%.
as §4, §5

Peronospora parasitica = assay: In vivo preventive test on Peronospora parasitica (Crucifer downy mildew); details: Hyaloperonospora parasitica, in Brassica oleracea, 120 h, cabbage, evaluated 5 days after inoculation, read-out: efficacy; for pest or weed control at 125 ppm: 125 ppm of active ingredient; for pest or weed control at 500 ppm: 500 ppm of active ingredient; for pest or weed control at 31 ppm: 31 ppm of active ingredient
Protocol: (§6) The tested active ingredients were prepared by homogenization in a mixture of acetone/Dimethyl sulfoxide/Tween®, and then diluted with water to obtain the desired active material concentration. The young plants of cabbage were treated by spraying the active ingredient prepared as described above. Control plants were treated only with an aqueous solution of acetone/Dimethyl sulfoxide/Tween®.
After 72 hours, the plants were contaminated by spraying the leaves with an aqueous suspension of Peronospora parasitica spores. The contaminated cabbage plants were incubated for 5 days at 20° C. and at 100% relative humidity.
The test was evaluated 5 days after the inoculation. 0% means an efficacy which corresponds to that of the control plants while an efficacy of 100% means that no disease was observed.
Compounds CMP2 and CMP3 were tested in an in vivo preventive test on Peronospora parasitica (Crucifer downy mildew) in the same conditions as described in Example G.

Uromyces appendiculatus = assay: In vivo preventive test on Uromyces appendiculatus (bean rust); details: 240 h, evaluated 10 days after inoculation, read-out: efficacy; for pest or weed control at 125 ppm: 125 ppm of active ingredient
Protocol: as §6, with “bean” for “cabbage”
After 72 hours, the plants were contaminated by spraying the leaves with an aqueous suspension of Uromyces appendiculatus spores. The contaminated bean plants were incubated for 24 hours at 20° C. and at 100% relative humidity and then for 9 days at 20° C. and at 70-80% relative humidity. The test was evaluated 10 days after the inoculation. 0% means an efficacy which corresponds to that of the control plants while an efficacy of 100% means that no disease was observed.
Compounds CMP5 and CMP6 were tested in an in vivo preventive test on Uromyces appendiculatus (bean rust) in the same conditions as described in Example I.

[4] = LogP by HPLC on reversed phase columns (EEC directive 79/831 Annex V.A8); type: physicochemical; details: reversed phase HPLC columns
Method in brief: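 Reversed-phase HPLC per EEC directive 79/831 Annex V.A8. Calibrated with straight-chain alkan-2-ones (C3–C16) of known LogP, LogP from retention times by linear interpolation between successive alkanones. Lambda-max taken from UV spectra (200–400 nm) at chromatographic peak maxima.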

[5] = system: salicylate responsive promoter sequence of the PR1 (pathogenesis-related protein I) gene (AT2G14610); assay: Induction of defense gene expression in Arabidopsis thaliana (PR1 promoter-GFP reporter plants); type: in vivo; details: Arabidopsis thaliana, 72 h, 3rd day after spraying, mock treated leaves set as 1.00, read-out: relative fluorescence value; for fold induction at 75 ppm: 75 ppm of compound
Protocol: Arabidopsis thaliana reporter plants containing the coding sequence of a green fluorescent protein (GFP) linked to the salicylate responsive promoter sequence of the PR1 (pathogenesis-related protein I) gene (AT2G14610) were grown for five days and then sprayed with compounds. On the 3rd day after spraying, plant fluorescence was assessed with a MacroFluo instrument from Leica Microsystems (Wetzlar, Germany). Fluorescences were quantified with the Meta-Morph Microscopy Automation & Image Analysis Software (Molecular Devices, Sunnyvale, Calif., United States). Background fluorescence in mock treated leaves was set as 1.00.

[6] = system: Xanthomonas campestris pv. campestris; assay: In vivo preventive test on Xanthomonas campestris pv. campestris (black rot on cabbage); details: evaluated 8 or 10 days after inoculation, read-out: efficacy; for pest or weed control at 31 ppm: 31 ppm of active ingredient
Protocol: The tested active ingredients were prepared by homogenization in a mixture of acetone/Dimethyl sulfoxide/Tween®, and then diluted with water to obtain the desired active material concentration.
The young plants of cabbage were treated by spraying the active ingredient prepared as described above. Control plants were treated only with an aqueous solution of acetone/Dimethyl sulfoxide/Tween®.
After 72 hours, the plants were contaminated by spraying the leaves with an aqueous bacteria suspension of Xanthomonas campestris pv. campestris. The contaminated cabbage plants were incubated for 8 or 10 days at 27° C. at 95% relative humidity.
The test was evaluated 8 or 10 days after the inoculation. 0% means an efficacy which corresponds to that of the control plants while an efficacy of 100% means that no disease was observed. […]
Compounds CMP1, CMP2, CMP3 and CMP4 were tested in an in vivo preventive test on Xanthomonas campestris pv. campestris (black rot on cabbage) in the same conditions as described in Example H.

[7] = system: Pseudomonas syringae pv. tomato; assay: In vivo preventive test on Pseudomonas syringae pv. tomato (bacterial speck on tomato); details: 31 ppm of active ingredient, evaluated 5 or 6 days after inoculation, read-out: efficacy
Protocol: as §6, with “tomato” for “cabbage”
After 72 hours, the plants were contaminated by spraying the leaves with an aqueous bacteria suspension of Pseudomonas syringae pv. tomato. The contaminated tomato plants were incubated for 4 days in saturated atmosphere at 22° C. day/20° C. night—70% HR and then for 1 or 2 days at 22° C. day/20° C. night at 70-80% relative humidity.
The test was evaluated 5 or 6 days after the inoculation. 0% means an efficacy which corresponds to that of the control plants while an efficacy of 100% means that no disease was observed.
Compounds CMP1 and CMP4 were tested in an in vivo preventive test on Pseudomonas syringae pv. tomato (bacterial speck on tomato) in the same conditions as described in Example J.

[8] = method [a]: LC-UV, acidic range, 0.1% formic acid in water and acetonitrile as eluent (linear gradient 10% to 95% acetonitrile)

chromatographic logP [4, 8]	chromatographic logP ([4]; given in the preparation examples, method not marked)	chromatographic logP ([4]; method [a]: LC-UV, in an acidic range, with 0.1% formic acid in water and acetonitrile as eluent (linear gradient from 10% to 95% acetonitrile))	SMILES	inhibition at 20 ppm (Alternaria alternata)	inhibition at 20 ppm [1]	inhibition at 20 ppm [2]	inhibition at 20 ppm [3]	pest or weed control at 125 ppm (Peronospora parasitica)	pest or weed control at 500 ppm (Peronospora parasitica)	pest or weed control at 8 ppm (Uromyces appendiculatus; 8 ppm)	pest or weed control at 125 ppm (Uromyces appendiculatus)	pest or weed control at 500 ppm (Uromyces appendiculatus; 500 ppm of active ingredient)	fold induction at 75 ppm [5]	fold induction at 300 ppm [5]	pest or weed control at 31 ppm (Peronospora parasitica)	pest or weed control at 31 ppm [6]	pest or weed control at 125 ppm ([6]; 125 ppm of active ingredient)	pest or weed control at 31 ppm [7]
2.67	–	–	CC(C)[C@H](NC(=O)c1sc(Cl)c(Cl)c1Cl)C(N)=O [I.147]	≤ 30%	≤ 30%	≤ 30%	≤ 30%	90 to 100%	90 to 100%	≥ 90%	90 to 100%	90 to 100%	–	–	–	–	–	–
–	4.01	4.01	CCSC(=O)C1(NC(=O)c2sc(Cl)c(Cl)c2Cl)CC1 [I.011, S-ethyl 1-{[(3,4,5-trichloro-2-thienyl)carbonyl]amino}cyclopropanecarbothioate]	≤ 30%	≤ 30%	≤ 30%	≤ 30%	90 to 100%	90 to 100%	–	–	–	> 2	> 2	90 to 100%	–	–	–
3.41	–	–	CCOC(=O)C(CSC(C)=O)NC(=O)c1sc(Cl)c(Cl)c1Cl (centres unmarked) [I.145]	≤ 30%	–	≤ 30%	≤ 30%	90 to 100%	–	–	90 to 100%	–	> 2	> 2	90 to 100%	90 to 100%	90 to 100%	80 to 89%
4.12	–	–	CCOC(=O)C[C@H](NC(=O)c1sc(Cl)c(Cl)c1Cl)C(=O)OCC [I.138]	≤ 30%	–	≤ 30%	≤ 30%	90 to 100%	–	–	90 to 100%	–	> 2	> 2	90 to 100%	70 to 79%	–	90 to 100%

Reference: patent US20230055705A1, “SUBSTITUTED THIOPHENE CARBOXAMIDES AND DERIVATIVES THEREOF” (Bayer Aktiengesellschaft, priority 2019, published 2023)
